The target in assay [1] is T1, HSD17B13 enzyme (Homo sapiens, UniProt Q7Z5P4).
T1 construct: His; made in house; host or cells: E. coli
T1 sequence (Q7Z5P4 20-300): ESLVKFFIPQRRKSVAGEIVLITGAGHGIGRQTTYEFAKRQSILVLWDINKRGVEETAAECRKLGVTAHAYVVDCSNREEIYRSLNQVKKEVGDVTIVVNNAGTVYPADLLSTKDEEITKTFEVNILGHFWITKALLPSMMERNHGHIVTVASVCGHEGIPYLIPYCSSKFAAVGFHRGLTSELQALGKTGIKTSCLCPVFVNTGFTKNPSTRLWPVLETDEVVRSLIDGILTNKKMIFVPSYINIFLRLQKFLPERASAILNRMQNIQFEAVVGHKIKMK
In words: LC/MS estrone detection assay (conversion of estradiol to estrone by HSD17B13). In kind it is biochemical. The following applies: substrate 4 μM estradiol, 6 mM NAD+, 30 nM HSD17B13 enzyme, 2 hours at 26.5° C. The protocol:
The liquid chromatography/mass spectrometry (LC/MS) estrone detection assay monitors the conversion of estradiol to estrone by HSD17B13. This assay was performed in a 96 wp format (Eppendorf deep well Plate 96/500) in an 80 μl reaction volume containing: 4 μM estradiol (E2; Cayman; Ser. No. 10/006,315); 6 mM NAD^+ (Sigma; #N0623), and 30 nM HSD17B13 enzyme (in-house; E. coli expressed His-tagged, purified, soluble protein), in a buffer containing 1M potassium phosphate buffer pH 7.4 and 0.5% vehicle (DMSO). Reactions were incubated for 2 hours at 26.5° C., and estradiol (E2) conversion to estrone (E1) was quantitated by LC-MS/MS based analyte detection for E1 using LCMS grade reagents. Reactions were terminated by the addition of two volumes of acetonitrile (MeCN; LCMS grade; CAS #75/05/8) containing deuterated (D4)-E1 as internal standard (Clear Synth; #CS-T-54273; 500 ng/mL final concentration). Samples were applied to pre-prepared Bond Elut-C18 extraction cartridges (3 mL; Agilent; Ser. No. 12/102,028), and washed and eluted in MeCN. Eluates were dried under nitrogen and re-suspended in 60% methanol (LCMS grade methanol; CAS #67/56/1) before submission for analysis. Standard curves for E1 were included for quantification. Analysis of samples was undertaken on a XBridge BEH C18 column (Waters; #186003033) using 0.1% Diethyl Amine in MeCN (mobile phase A; DEA CAS #109-89-7) and 0.1% Diethyl Amine in milli-Q water (mobile phase B) in a 3 min gradient up to 25% B. Analytes were detected in negative mode using MRM analysis, with E2 having a RT of 1.85 min and E1 having a RT of 2 min. Activity of the enzyme in the absence of NAD^+, was subtracted from samples to yield values for specific enzyme activity. Enzyme activity in the presence of test samples was expressed as a percentage of the uninhibited enzyme activity, and plotted versus inhibitor concentration. Non-linear regression was performed using the Morrison equation (see below) for tight binding inhibitors on GraphPad Prism software (GraphPad Software, La Jolla, Calif.). All assessments were undertaken in duplicate evaluations which were pooled during the extraction process and subsequently injected as duplicates for LC-MS/MS analysis. Y=Vo*(1−((((Et+X+Q)−(((Et+X+Q)^2)−4*Et*X)^0.5))/(2*Et))) Morrison equation:
Y=Activity in the presence of inhibitor; Vo=Activity in absence of inhibitor; Et=Total enzyme concentration; X=inhibitor concentration; and Q=(Ki*(1+(S/Km))), where Ki is the inhibition constant, Km is the Michaelis constant, and S is the substrate concentration.

Assay [2] concerns the target T1, HSD17B13 enzyme. In words: NADH detection assay (fluorescence based Leukotriene B3 (LTB3) assay) for HSD17B13 activity. The following applies: substrate 25 μM LTB3, 3 mM NAD+, 125 nM HSD17B13 enzyme, 1 hour at 26.5° C. In kind it is biochemical. Here is the method: The fluorescence based Leukotriene B3 (LTB3) assay monitors the fluorescence of NADH, which is generated from NAD+ during the dehydrogenation of the substrate LTB3. The reactions were performed in a 384-well plates (Greiner; #655076) in a 20 μl reaction volume containing the following reagents (final concentrations): 25 μM LTB3 (Cayman; #20109); 3 mM NAD^+ (Sigma; #N0623); 125 nM HSD17B13 enzyme (in-house; E. coli expressed His-tagged, purified, soluble protein); 1 M potassium phosphate buffer, pH 7.4; and 1% DMSO. Reactions were initiated by co-addition of NAD+ and enzyme, and monitored for 1 hour at 26.5° C. Generation of NADH was measured as the fluorescence signal (Excitation at 340 nm and Emission at 445 nm) at 1 hour minus the baseline fluorescence at t=0. Fluorescence signals in the absence of LTB3 (negative control values), were subtracted from all values so that the results reflected substrate-dependent production of NADH. NADH standards were included to allow the conversion of relative fluorescence units into rates of enzyme activity. Enzyme activity in the presence of test compounds was expressed as a percentage of the uninhibited enzyme activity, and plotted versus inhibitor concentration. Non-linear regression was performed using a four-parameter logistic model and Microsoft Excel Solver® software. Ten concentrations of inhibitor were tested in duplicate (in the range of 30 μM-2.5 nM). Two independent concentration response assays were performed and the geometric mean is reported, =/−the SEM.

As for `COc1ccccc1CCNC(=O)c1sccc1NC(=O)c1ccc(O)c(F)c1` [Example 30, 3-(3-fluoro-4-hydroxybenzamido)-N-(2-methoxyphenethyl)thiophene-2-carboxamide], the IC50 is no more than 100 nM in assay [1] and no more than 1000 nM in assay [2].

As to `COc1ccccc1CCNC(=O)c1sc2ccccc2c1NC(=O)c1ccc(O)c(Cl)c1` [Example 31, 3-(3-chloro-4-hydroxybenzamido)-N-(2-methoxyphenethyl)benzo[b] thiophene-2-carboxamide], the IC50 in assay [1] is 100 to 1000 nM; in assay [2], no more than 1000 nM.

For `COc1ccccc1CCNC(=O)c1sccc1NC(=O)c1ccc(O)c(C(F)(F)F)c1` [Example 33, 3-(4-hydroxy-3-(trifluoromethyl)benzamido)-N-(2-methoxyphenethyl)thiophene-2-carboxamide], the IC50 in assay [1] was no more than 100 nM; in assay [2], greater than 10000 nM.

Values taken from patent publication US12673930B2, “Thiophene HSD17B13 inhibitors and uses thereof” (INIPHARM, INC., priority 2020, dated 2026).
